{"source": "patent US5494895A", "about": "“Scorpion peptide margatoxin with immunosuppressant activity” (Merck & Co., Inc., priority 1993, dated 1996)", "key": {"Kv 1.3": {"target": "T1, Kv 1.3 (Rattus norvegicus, UniProt P15384)", "T1 construct": "from tissue; host or cells: rat brain synaptic plasma membrane vesicles", "T1 sequence (P15384 whole entry)": "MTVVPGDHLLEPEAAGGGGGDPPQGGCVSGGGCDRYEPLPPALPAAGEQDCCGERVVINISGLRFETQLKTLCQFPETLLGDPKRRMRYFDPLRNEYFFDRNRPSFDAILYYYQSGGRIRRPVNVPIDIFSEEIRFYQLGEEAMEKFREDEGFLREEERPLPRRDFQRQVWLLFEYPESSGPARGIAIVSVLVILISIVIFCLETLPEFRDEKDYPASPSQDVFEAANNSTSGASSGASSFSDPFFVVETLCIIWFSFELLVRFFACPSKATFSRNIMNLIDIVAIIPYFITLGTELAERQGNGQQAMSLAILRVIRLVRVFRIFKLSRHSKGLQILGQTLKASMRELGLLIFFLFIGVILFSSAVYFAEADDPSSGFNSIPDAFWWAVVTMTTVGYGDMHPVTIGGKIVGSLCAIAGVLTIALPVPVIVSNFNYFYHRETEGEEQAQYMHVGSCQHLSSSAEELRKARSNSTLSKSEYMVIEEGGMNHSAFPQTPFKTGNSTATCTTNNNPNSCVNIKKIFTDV", "test": "[125I]ChTX binding to rat brain synaptic plasma membrane vesicles", "details": "low ionic strength (50 mM NaCl, 20 mM Tris-HCl, pH 7.4)", "method": "The potency of MgTX as an inhibitor of [^125 I]ChTX binding to Kv 1.3 was evaluated. The binding of [^125 I]ChTX to either rat brain synaptic plasma membrane vesicles (Kv 1.3 channel; Vazquez et al., J. Biol. Chem. 265, 15564, 1990) or bovine aortic smooth muscle sarcolemmal membranes (Maxi-K channel; Vazquez et al., J. Biol. Chem. 264, 20402, 1989) was determined as described. Briefly, membrane vesicles were incubated with [^125 I]ChTX in the presence or absence of other added agents, until equilibrium was achieved. Separation of bound from free ligand was accomplished by filtration through GF/C glass fiber filters (WHATMAN) that had been presoaked in 0.5% polyethyleneimine. Nonspecific binding was determined in the presence of 10 nM unlabeled ChTX. Data from saturation experiments were analyzed in a Scatchard representation to determine Kd and Bmax values. Triplicate samples were obtained for each experimental point and the data were averaged. The standard deviation of the mean was typically less than 2%. […] As an indication of selectivity, MgTX had no effect on [^125 I]ChTX binding to the Maxi-K channel in smooth muscle membranes at concentrations up to 10 nM."}, "[1]": {"target": "T2, Kv 1.3 in plasma membranes from Jurkat cells (Homo sapiens, UniProt P22001)", "T2 construct": "plasma membranes prepared from Jurkat cells, a human T-cell leukemia line; endogenous in cells; host or cells: Jurkat cells (plasma membranes)", "T2 sequence (P22001 whole entry)": "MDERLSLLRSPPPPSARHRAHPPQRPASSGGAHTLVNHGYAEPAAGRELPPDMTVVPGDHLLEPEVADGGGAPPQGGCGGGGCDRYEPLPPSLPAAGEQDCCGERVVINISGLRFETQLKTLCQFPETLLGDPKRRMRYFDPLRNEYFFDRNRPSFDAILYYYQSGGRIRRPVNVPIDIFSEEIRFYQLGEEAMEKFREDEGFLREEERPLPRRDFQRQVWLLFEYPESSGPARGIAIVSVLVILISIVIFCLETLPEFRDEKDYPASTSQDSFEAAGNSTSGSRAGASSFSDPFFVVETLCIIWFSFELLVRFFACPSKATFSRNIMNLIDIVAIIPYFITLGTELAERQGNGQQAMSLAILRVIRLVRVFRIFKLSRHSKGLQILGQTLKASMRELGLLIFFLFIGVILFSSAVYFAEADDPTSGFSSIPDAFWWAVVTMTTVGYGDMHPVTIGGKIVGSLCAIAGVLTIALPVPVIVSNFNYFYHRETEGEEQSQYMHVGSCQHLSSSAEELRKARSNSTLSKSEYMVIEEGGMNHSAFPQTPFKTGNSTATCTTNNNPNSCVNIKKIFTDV", "test": "[125I]ChTX binding to plasma membranes from Jurkat cells", "method": "In addition to being tested for competition for [^125 I]ChTX binding to rat brain and bovine aortic smooth muscle, MgTX was evaluated for its effects on [^125 I]ChTX binding to human T lymphocytes and to plasma membranes prepared from Jurkat cells, a human T-cell leukemia line. MgTX competition for [^125 I]ChTX binding to human T cells was performed as described by Lin, et al., J. Exp. Med. 177, 637-645, 1993. Binding experiments using monocyte-depleted, E-rosetted human T cells were carried out in isotonic sucrose with 5 mM KCl, 5 mM NaCl, 6 mM glucose and 10 mM HEPES, pH 8.0 until equilibrium was achieved. The procedure for binding to plasma membranes from Jurkat Cells is similar except that the binding solution was 3 mM KCl, 7 mM NaCl, 10 mM HEPES, pH 8.0. Free ligand was removed from bound by filtration through Whatman GF/C glass fiber filters (pretreated with 0.5% polyethylenimine). […] Hill coefficients were 2 in both cases."}, "[2]": {"system": "Kv 3 (rat Kv 1.3; human Kv 1.3)", "test": "Two-electrode voltage clamp of Xenopus oocytes expressing Kv 3 (Kv 1.3)", "assay_type": "cell-based, rat and human", "details": "read-out: IC50 on cloned channel Kv 3", "method": "(§1) Ionic currents were also recorded from Xenopus oocytes that had been injected with RNA transcribed in vitro from one or another of the following K^+ channel cDNA clones. Kv 1 (rat Kv 1.5), rat or human Kv 3 (rat Kv 1.3; human Kv 1.3), Kv 4 (rat Kv 3.1 ), rat ISK, Kv 2 (rat Kv 1.6) or Drosophila Shaker-H4. The names of the clones are listed as originally published, with the appropriate parenthetical designation according to the unified gene nomenclature proposed by Chandy. Shaker-H4 is a splice variant from the original Drosophila Shaker K^+ channel gene. Kv 1.3 is the ChTX-sensitive delayed rectifier current found in rat and human T lymphocytes (data from rat and human clones were indistinguishable and were combined) and it is a member of the Shaker family. Kv 1.5 is a channel cloned from rat (Swanson et al., Neuron, 4, 929, 1990) and is another member of the Shaker family. The Kv 1.5 transcript has been detected in pancreatic β cells as described in Philipson, et al., Proc. Natl. Acad. Sci. U.S.A. 88, 53, 1991. […] The ISK transcript has been detected in lymphocytes (Attali et al., J. Biol. Chem,. 267, 8650, 1992), but no evidence of the IKs current has been found in those cells.\n(§2) Methods for oocyte isolation and micro-injection were previously described in Goldin, Meth. […] Currents expressed in oocytes were measured using a DAGAN model CA-1 two-electrode voltage clamp. […]"}, "ISK": {"target": "T3, ISK (Rattus norvegicus, UniProt P15383)", "T3 construct": "expressed in transfected cells; host or cells: Xenopus oocytes injected with RNA transcribed in vitro from the cDNA clone", "T3 sequence (P15383 whole entry)": "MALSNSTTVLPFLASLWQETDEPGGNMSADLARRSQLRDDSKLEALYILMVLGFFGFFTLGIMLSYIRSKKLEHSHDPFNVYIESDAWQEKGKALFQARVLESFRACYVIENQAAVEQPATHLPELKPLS", "T3 sequence (P70057 whole entry partner)": "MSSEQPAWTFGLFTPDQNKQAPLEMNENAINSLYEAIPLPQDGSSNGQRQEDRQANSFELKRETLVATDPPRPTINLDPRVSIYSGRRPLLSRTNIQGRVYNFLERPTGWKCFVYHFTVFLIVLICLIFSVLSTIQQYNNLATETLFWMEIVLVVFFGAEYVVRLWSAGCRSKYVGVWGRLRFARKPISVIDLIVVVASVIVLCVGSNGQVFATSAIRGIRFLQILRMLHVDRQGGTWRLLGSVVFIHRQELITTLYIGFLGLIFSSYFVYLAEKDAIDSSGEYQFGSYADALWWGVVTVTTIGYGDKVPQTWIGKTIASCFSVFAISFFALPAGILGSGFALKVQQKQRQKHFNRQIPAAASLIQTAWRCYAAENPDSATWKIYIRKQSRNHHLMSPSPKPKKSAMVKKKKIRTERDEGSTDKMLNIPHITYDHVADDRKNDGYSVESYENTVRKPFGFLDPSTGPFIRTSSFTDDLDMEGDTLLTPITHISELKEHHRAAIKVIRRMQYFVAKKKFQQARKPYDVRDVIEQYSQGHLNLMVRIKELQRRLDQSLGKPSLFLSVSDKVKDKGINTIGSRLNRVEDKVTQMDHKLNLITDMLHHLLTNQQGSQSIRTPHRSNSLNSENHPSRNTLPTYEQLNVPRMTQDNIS", "test": "Two-electrode voltage clamp of Xenopus oocytes expressing ISK", "assay_type": "cell-based", "details": "200 nM MgTX", "method": "as §1, §2"}, "human T-lymphocytes": {"system": "human T-lymphocytes", "details": "cited from earlier work"}}, "note": "Peptide text beside a SMILES is read from it.", "data": [{"smiles": "CC[C@H](C)[C@H](NC(=O)[C@@H](N)[C@@H](C)O)C(=O)N[C@H](C(=O)N[C@@H](CC(N)=O)C(=O)N[C@H](C(=O)N[C@@H](CCCCN)C(=O)N[C@H]1CSSC[C@@H]2NC(=O)[C@H](CCCCN)NC(=O)[C@H](C)NC(=O)CNC(=O)[C@H](C)NC(=O)[C@H](CO)NC(=O)[C@H](CCC(N)=O)NC(=O)CNC(=O)[C@H](Cc3ccccc3)NC(=O)[C@H](CCC(N)=O)NC(=O)[C@H](C)NC(=O)[C@H](CCCCN)NC(=O)[C@@H]3CSSC[C@@H](C(=O)N[C@@H](Cc4ccc(O)cc4)C(=O)N4CCC[C@H]4C(=O)N[C@@H](Cc4c[nH]cn4)C(=O)O)NC(=O)[C@H](CCCCN)NC(=O)[C@H](CSSC[C@H](NC(=O)[C@H](CCC(N)=O)NC(=O)[C@H](CCCCN)NC(=O)[C@@H]4CCCN4C(=O)[C@H](CO)NC(=O)[C@H]([C@@H](C)O)NC1=O)C(=O)N[C@@H](CC(C)C)C(=O)N1CCC[C@H]1C(=O)N1CCC[C@H]1C(=O)N3)NC(=O)[C@H](CCCCN)NC(=O)CNC(=O)[C@H](CC(N)=O)NC(=O)[C@H](CCSC)NC2=O)C(C)C)[C@@H](C)CC", "note": "[MgTX, Margatoxin] (HELM PEPTIDE1{T.I.I.N.V.K.C.T.S.P.K.Q.C.L.P.P.C.K.A.Q.F.G.Q.S.A.G.A.K.C.M.N.G.K.C.K.C.Y.P.H}$PEPTIDE1,PEPTIDE1,7:R3-29:R3|PEPTIDE1,PEPTIDE1,13:R3-34:R3|PEPTIDE1,PEPTIDE1,17:R3-36:R3$$$V2.0; N-terminus and C-terminus assumed; bridges inferred)", "values": [{"measurement": "Hill coefficient of inhibition of [125I]ChTX binding to brain membranes", "setting": "Kv 1.3", "value": 1.7}, {"measurement": "IC50", "setting": "Kv 1.3; read-out: IC50 for inhibition of [125I]ChTX binding to brain membranes", "value": 0.036, "unit": "nM"}, {"measurement": "Hill coefficient", "setting": "[1]", "value": 2}, {"measurement": "IC50", "setting": "[1]; pH 8.0, read-out: IC50 for inhibition of [125I]ChTX binding", "value": 0.0027, "unit": "nM"}, {"measurement": "IC50", "setting": "[2]", "value": "~0.03", "unit": "nM"}, {"measurement": "sensitivity of cloned channel ISK to block", "setting": "ISK", "value": "completely insensitive"}, {"measurement": "effect on interleukin 2 production", "setting": "human T-lymphocytes", "value": "inhibits interleukin 2 production"}]}]}
